Experimental data reported in patent publication US20030114375A1, “Method for treating cystic fibrosis” (The Government of the USA, Dept of Health and Human …, priority 1994, published 2003).
“Also recorded” adds a separate entry of the source. Where two headings read alike, the source gives them in different places.

Legend:
Iα polypeptide = target: T1, Iα polypeptide (Homo sapiens, UniProt P13569); assay: Phosphatidylserine liposome aggregation driven by Iα polypeptide; format: biochemical; settings: 0.5 μg/ml (0.18 μM) Iα; 2-thio-CPX up to 1 μM, IBMX up to 15 μM
T1 construct: made in house; host or cells: chemical solid-phase synthesis (Yale University)
Protocol: Liposome aggregation assay: Phosphatidylserine (“PS”, obtained from Avanti) was dissolved in chloroform, and small unilamellar liposomes were prepared by the extrusion process known in the art. A Lipex machine was used to extrude the PS in a buffer consisting of 10 mM Na-HEPES, pH 7.2 and 1 mM EDTA. The liposomes were diluted to a final optical density at 540 nm of 0.01 and incubated with different concentrations of the different polypeptides and/or chloride ion efflux-activating compounds.

CFPAC cells [1] = assay: [36Cl]- efflux from CFPAC cells; settings: for % control: chloride efflux at maximum impact relative to control: at Conc. max.; for % control: chloride efflux at minimum detection relative to control: at threshold concentration; for Efflux rate as compared to control (FIGS. 9-12): read from the graphs
CFPAC cells [2] = settings: U.S. Pat. No. 5,366,977 / Eidelman et al.; cited from earlier work
A1-adenosine receptor = target: T2, A1-adenosine receptor (Rattus norvegicus, UniProt P25099); assay: Inhibition of [3H]N6-phenylisopropyladenosine binding to A1 receptors
T2 construct: Rat cerebral cortical membranes and striatal membranes were prepared; from tissue; host or cells: rat cerebral cortex membranes
T2 sequence (P25099 1-326): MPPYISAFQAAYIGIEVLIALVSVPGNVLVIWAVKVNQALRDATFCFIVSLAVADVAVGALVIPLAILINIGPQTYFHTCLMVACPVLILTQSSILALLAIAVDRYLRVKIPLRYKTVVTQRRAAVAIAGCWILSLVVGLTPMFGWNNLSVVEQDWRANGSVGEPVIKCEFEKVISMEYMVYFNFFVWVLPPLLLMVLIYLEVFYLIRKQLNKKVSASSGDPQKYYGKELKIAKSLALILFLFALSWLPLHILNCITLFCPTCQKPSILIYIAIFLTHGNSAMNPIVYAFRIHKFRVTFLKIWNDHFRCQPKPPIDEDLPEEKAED
Protocol: (§1) Solid samples of the adenosine derivatives were dissolved in dimethyl sulfoxide (DMSO) and stored in the art at. −20° C. The stock solutions were diluted with DMSO to a concentration of ≦0.1 mM prior to addition to the aqueous medium. The final concentration of DMSO in the assay medium was generally 2%.
Inhibition of binding of 1 nM [^3H]N^6-phenylisopropyladenosine (Dupont NEN, Boston, Mass.) to A1 receptors in rat cerebral cortex membranes was measured as described in Schwabe et al., Naunyn-Schmiedeberg's Arch. […] Membranes (^˜100 μg protein per tube) were incubated for 1.5 hours at 37° C. in a total volume of 0.5 ml of 50 mM tris hydrochloride at pH 7.4. Test drugs were dissolved in DMSO and added in 10 μl aliquots, resulting in a final DMSO concentration of 2%. Bound and free radioligand were separated by addition of 3 ml of a buffer containing 50 mM tris hydrochloride, at pH 7.4 at 5° C., followed by vacuum filtration using a Brandel Cell Harvester (Brandel, Gaithersburg, Md.) and a Whatman GF/B glass fiber filter with additional washes totaling 9 ml of buffer. Non-specific binding was determined with 10 μM 2-chloroadenosine.
(§2) At least six different concentrations spanning three orders of magnitude, adjusted appropriately for the IC50 of each compound, were used.

A2a-adenosine receptor = target: T3, A2a-adenosine receptor (Rattus norvegicus, UniProt P30543); assay: Inhibition of [3H]CGS 21680 binding to A2a receptors; settings: for Ki: rat striatal membranes, 5 nM [3H]CGS 21680, read-out: Ki, μM(A2)
T3 construct: Rat cerebral cortical membranes and striatal membranes were prepared; from tissue; host or cells: rat striatal membranes
Protocol: as §1
Membranes (^˜80 μg protein per tube) were incubated for one hour at 25° C. in a total volume of 0.5 ml of a buffer solution consisting of […] tris hydrochloride and 10 mM MgCl2 at pH 7.4. Test drugs were dissolved in DMSO and added in 10 μl aliquots, resulting in a final DMSO concentration of 2%. Non-specific binding was defined using 20 μM 2-chloroadenosine. Filtration was carried out using a Brandel Cell Harvester, as above, using the tris.HCl/MgCl2 buffer recited hereinabove as the washing buffer.
as §2

[3] = tested on: bovine chromaffin granules; assay: Chromaffin granule aggregation assay; format: biochemical; settings: for Aggregation of chromaffin granules: 1 mM CaCl2, 20 μg/ml polypeptide
Protocol: Chromaffin granule aggregation assay: Adrenal glands were obtained from a local abattoir and transported to the laboratory on ice within 2 hours of slaughter. Tissue was processed as described in Brocklehurst et al. in Polypeptide Hormones: A Practical Approach (Oxford Univ. Press, K. Siddle and J. Hutton, eds., 1990) at pp. 237-255. Chromaffin granules were purified on a step gradient of metrizamide using standard procedures. After resuspension, the granule aggregation assay was performed as described (Brocklehurst et al., supra), and the synexin activity was assessed from the initial rate of optical density increase at 540 nm. Briefly, the assay was carried out at room temperature in a 1 ml quartz cuvette containing the chromaffin granule suspension in 0.3 mol/l sucrose, 40 mmol/l histidine buffer, pH 6.0, synexin and variable amounts of calcium chloride.

[4] = rat cerebral cortex membranes, 1 nM [3H]PIA, read-out: Ki, μM(A1)

T3 sequence (P30543 whole entry): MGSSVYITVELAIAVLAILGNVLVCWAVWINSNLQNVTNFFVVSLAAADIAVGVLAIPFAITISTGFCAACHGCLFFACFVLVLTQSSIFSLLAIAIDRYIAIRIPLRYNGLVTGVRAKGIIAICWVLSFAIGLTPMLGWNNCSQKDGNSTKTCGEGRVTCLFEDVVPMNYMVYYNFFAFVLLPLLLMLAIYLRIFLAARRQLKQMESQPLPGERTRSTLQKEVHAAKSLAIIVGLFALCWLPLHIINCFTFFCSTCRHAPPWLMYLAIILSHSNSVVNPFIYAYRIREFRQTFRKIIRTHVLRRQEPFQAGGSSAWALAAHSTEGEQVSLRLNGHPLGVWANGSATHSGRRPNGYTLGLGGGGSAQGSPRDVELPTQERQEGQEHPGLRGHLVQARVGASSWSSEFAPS

Row | Compound | Conc. max. (nM): concentration at maximum impact upon chloride efflux (CFPAC cells [1]) | Ki (A1-adenosine receptor; [4]) [µM] | Ki (A2a-adenosine receptor) [µM] | also measured
1 | CCn1c(C2CCCCC2)nc2c1c(=O)n(C)c(=O)n2C (hydrate or solvate) [Compound 15] | – | – | – | melting point: > 170 °C
2 | Cn1c(=O)c2c(nc(C3CCCCC3)n2CC2CC2)n(C)c1=O (hydrate or solvate) [Compound 16] | – | – | – | melting point: > 120 °C
3 | Nc1ncnc2c1ncn2[C@@H]1O[C@H](CO)[C@@H](O)[C@H]1O [Adenosine, adenosine] | – | – | – | Effect on PS liposome aggregation driven by Iα (Iα polypeptide): modest but evident biphasic effect
4 | Cn1c(=O)c2c(ncn2C)n(C)c1=O [Compound 2, 1,3,7-trimethylxanthine, reference compound] | 10 nM | – | – | thresh (nM): minimum concentration required to detect an effect upon chloride efflux (CFPAC cells [1]): 1 nM
5 | Cn1c(=O)c2[nH]c(C3CCCC3)nc2n(C)c1=O [Compound 4, 1,3-dimethyl-8-cyclopentylxanthine, reference compound] | >>10^4 nM | 0.011 | – | Activation of chloride efflux from CF cells (words, prior disclosure) (CFPAC cells [2]): ineffective; Affinity for A1 receptor (A1-adenosine receptor): highest A1 affinity
6 | CCCn1c(=O)c2c(nc(C3CCCC3)n2C)n(CCC)c1=O [Compound 6, 1,3-dipropyl-7-methyl-8-cyclopentylxanthine] | 1000 nM | 2.3 | 11.4 ± 1.4 | Chloride efflux stimulation (summary words) (CFPAC cells [1]): stimulate chloride efflux at μM or lesser concentrations; also recorded: substantial efflux activity at low concentration ranges; thresh (nM): minimum concentration required to detect an effect upon chloride efflux (CFPAC cells [1]): 30 nM; % control: chloride efflux at maximum impact relative to control (CFPAC cells [1]): 180 ± 40%; % control: chloride efflux at minimum detection relative to control (CFPAC cells [1]): 125 ± 30%; Affinity for A2 receptor (A2a-adenosine receptor): low affinity; Affinity for A1 receptor (A1-adenosine receptor): low affinity
7 | CCCn1c(=O)c2[nH]c(C3CCC(F)C3)nc2n(CCC)c1=O (centres unmarked) [Compound 9] | >>300 nM | 0.042 | – | –
8 | CCCn1c(=O)c2[nH]c(C3CCC(I)C3)nc2n(CCC)c1=O (centres unmarked) [Compound 10] | >>300 nM | 0.058 | – | –
9 | CCCn1c(=O)c2[nH]c(C3C=CCC3)nc2n(CCC)c1=O (centres unmarked) [Compound 11] | >>300 nM | 0.045 | 0.64 ± 0.061 | –
10 | Cn1c(=O)c2c(nc(C3CCCCC3)n2C)n(C)c1=O [Compound 14, 8-cyclohexyl caffeine] | – | – | – | Chloride efflux stimulation (summary words) (CFPAC cells [1]): stimulate chloride efflux at μM or lesser concentrations; also recorded: substantial efflux activity at low concentration ranges; thresh (nM): minimum concentration required to detect an effect upon chloride efflux (CFPAC cells [1]): 3 nM
11 | CCn1c(C2CCCCC2)nc2c1c(=O)n(C)c(=O)n2C [Compound 15] | >>10^4 nM | 6.66 ± 0.99 | 3.23 ± 0.36 | –
12 | Cn1c(=O)c2c(nc(C3CCCCC3)n2CC2CC2)n(C)c1=O [Compound 16] | >>10^4 nM | 8.23 ± 1.62 | 4.53 ± 1.37 | –
13 | C=CCn1c(=O)c2[nH]c(C3CCCCC3)nc2n(CC=C)c1=O [Compound 17] | 10^3 nM | – | 4.94 ± 0.68 | thresh (nM): minimum concentration required to detect an effect upon chloride efflux (CFPAC cells [1]): 30 nM; Efflux rate as compared to control (FIGS. 9-12) (CFPAC cells [1]): > 100%; Ki (A1-adenosine receptor; read-out: Ki for A1 receptors (unit inferred)): ~0.07 µM
14 | CCCn1c(=O)c2[nH]c(C3CCCCC3)nc2n(CCC)c1=O [Compound 18] | >>10^4 nM | – | – | –
15 | CCCn1c(=O)c2c(nc(C3CCCCC3)n2C)n(CCC)c1=O [Compound 19, 1,3-dipropyl-7-methyl-8-cyclohexylxanthine] | 5 nM | 2.7 | 9.24 ± 0.37 | Chloride efflux stimulation (summary words) (CFPAC cells [1]): stimulate chloride efflux at μM or lesser concentrations; also recorded: substantial efflux activity at low concentration ranges; thresh (nM): minimum concentration required to detect an effect upon chloride efflux (CFPAC cells [1]): 5 nM; % control: chloride efflux at maximum impact relative to control (CFPAC cells [1]): 170 ± 50%; % control: chloride efflux at minimum detection relative to control (CFPAC cells [1]): 170 ± 50%
16 | Cn1c(=O)c2[nH]c(CC3CCCCC3)nc2n(C)c1=O [Compound 21] | >>10^4 nM | 0.61 ± 0.076 | 5.47 ± 0.86 | melting point: 236 to 238 °C
17 | Cn1c(=O)c2c(nc(CC3CCCCC3)n2C)n(C)c1=O [Compound 22, 8-cyclohexylmethyl caffeine] | >>10^4 nM | 3.71 ± 0.36 | 5.46 ± 0.47 | Efflux rate as compared to control (FIGS. 9-12) (CFPAC cells [1]): 200%
18 | Cn1c(=O)c2[nH]c(C3CCCCCC3)nc2n(C)c1=O [Compound 23] | >>10^4 nM | 0.0659 ± 0.0145 | 1.05 ± 0.19 | melting point: 223 to 225 °C
19 | Cn1c(=O)c2c(nc(C3CCCCCC3)n2C)n(C)c1=O [Compound 24] | >>10^4 nM | 19.5 ± 2.5 | 3.27 ± 0.98 | A2a affinity (fold) (A2a-adenosine receptor; A2a versus A1): 6 fold
20 | Cn1c(=O)c2c(nc(C=Cc3cccc(Cl)c3)n2C)n(C)c1=O [Compound 25, reference compound] | 30 nM | – | – | Chloride efflux stimulation (summary words) (CFPAC cells [1]): stimulate chloride efflux at μM or lesser concentrations; thresh (nM): minimum concentration required to detect an effect upon chloride efflux (CFPAC cells [1]): 30 nM
21 | CCCn1c(=O)c2[nH]c(-c3ccc(OCC(=O)NCCN)cc3)nc2n(CCC)c1=O [Compound 26, reference compound] | >>10^4 nM | – | – | –
22 | CCn1cnc2c(NC3CCCC3)ncnc21 [Compound 27, 9-ethyl-6-cyclopenyladenine, reference compound] | >>10^4 nM | 0.44 | 17 | –
23 | CFTR polypeptide, amino acid positions 477 to 508, NH2-PSEGKIKHSGRISFCSQFSWIMPGTIKENEEF-COOH [Iα] | – | – | – | Aggregation of chromaffin granules [3]: drive aggregation; k1/2,app of chromaffin granule aggregation ([3]; 1 mM CaCl2, pH 6.0): 22.2 µg/mL; EC50 ([3]; 1 mM CaCl2, pH 6.0, read-out: k1/2,app of chromaffin granule aggregation): 6.3 µM
24 | Io: CFTR polypeptide, positions 500 to 530, NH2-GTIKENEEFGVSYDEYRYRSVIKACQLEEDIS-COOH | – | – | – | Aggregation of chromaffin granules [3]: inactive
25 | Iβ: CFTR polypeptide, positions 509 to 539, NH2-GVSYDEYRYRSVIKACQLEEDISKFAEKDNI-COOH | – | – | – | Aggregation of chromaffin granules [3]: essentially inactive
